Here are results for 86 compounds from ChEMBL document CHEMBL1157539, “Thousands of chemical starting points for antimalarial lead identification” (Nature, 2010).

The assay concerns Plasmodium falciparum. In words: GSK_TCMDC: Inhibition of Plasmodium falciparum 3D7 in whole erythrocytes, using parasite LDH activity as an index of growth. Conditions: Plasmodium falciparum, 3D7. It counts as functional, organism-based.
`O=C(/C=C/c1cccc(Cl)c1)Nc1ccc2nc(CN3CCCC3)ccc2c1` displayed an XC50 of 255 nM. Compound `CNCCNCc1ccc(-c2ccc(-c3nc4cc(C(F)(F)F)ccc4[nH]3)s2)cc1` yielded an XC50 of 604 nM.

In the case of `Cc1ccc2[nH]c(Nc3ccc(Nc4nc5cc(C)ccc5[nH]4)c(C)c3)nc2c1`, the XC50 was 769 nM.

`O=C1c2ccc([N+](=O)[O-])cc2C(=O)N1c1ccc2[nH]ncc2c1`: the XC50 worked out at 1150 nM. Next, `CCNc1cc(C(=O)N[C@@H](Cc2ccccc2)[C@H](O)CNCc2cc(C#N)ccc2OC)cc(N2CCCC2=O)c1`: 1230 nM. The compound `COc1cccc(-c2cc(-c3ccc(NC(=O)c4ccccc4)cc3)c3c(N)ncnc3n2)c1` displayed an XC50 of 587 nM. Next, `Cc1nc(C)c(-c2ccc(S(=O)(=O)c3ccc(Cl)cc3)cc2)c(O)c1Br`: 38 nM; `CC(C)c1ccc(N(CC(=O)N/N=C/c2ccc(C(F)(F)F)cc2)S(=O)(=O)c2ccc(C(F)(F)F)cc2)cc1`: 846 nM; `Cc1cc(N[C@@H](CC(C)C)C(=O)NCc2cccc(F)c2)nc(NCC2CCCCC2)n1`: 834 nM.

`CCOc1ccc(N2C(N)=NC(N)=NC2(C)C)cc1`: the XC50 was 259 nM. Next, `Cc1cnc(Nc2ccccc2)nc1NCCC(=O)Nc1ccccc1`: 1160 nM; `Cc1nc(-c2cccc(NCc3ccccc3)c2)[nH]c1C`: 863 nM.

Consider `O=C(Cn1c(SCc2cccc(F)c2F)cc(=O)c2ccccc21)N(CCCn1ccnc1)Cc1ccc(-c2ccc(C(F)(F)F)cc2)cc1`, for which the XC50 came out at 1320 nM. For `COc1c(C2CCN(CCN3CCC(NC(=O)c4ccc(-c5ccc(C(F)(F)F)cc5)cc4)CC3)CC2)ccc2c1CCCC2`, the XC50 was determined as 1360 nM. On to `O=C(Nc1cccc(CN2CCCN(Cc3cccc(O)c3)CC2)c1)c1ccc(Cl)c(Cl)c1`, for which the XC50 is 664 nM.

In turn, `c1ccc(-c2ccc(-c3nc4ccccc4[nH]3)cc2)cc1` displayed an XC50 of 809 nM. Next, `CCn1ccc2c(N3CCCC3=O)cc(C(=O)N[C@@H](Cc3ccccc3)[C@H](O)CNCc3cccc(OC)c3)cc21`: 588 nM; `Cc1cccc(C(=O)NCCCN2CCC(NC(=O)/C=C/c3ccc(Cl)c(Cl)c3)CC2)c1`: 1700 nM. Next, `CCNC1=NC2=C(CC(C(C)(C)C)CC2)C2(CCC(C(C)(C)C)CC2)S1` (stereo unspecified): 834 nM; `O=C(CSc1nccn1C1CCCCC1)Nc1cc(C(F)(F)F)ccc1Cl`: 402 nM; `Cc1cc(CNCCCCCCCNCc2ccc(-c3ccccc3)cc2)ccc1O`: 493 nM. On to `CCCCC1(c2ccc(F)cc2)NC(=O)N(CC(=O)c2cc(C)n(Cc3ccco3)c2C)C1=O` (stereo unspecified), for which the XC50 turned out to be 983 nM. Consider `CC(=O)c1ccc(N2CCN(CCC3(c4ccc(Cl)c(Cl)c4)COCN(C(=O)c4ccccc4)C3)CC2)cc1` (stereo unspecified), for which the XC50 was 925 nM.

As to `O=C(Nc1ccc2c(c1)CCN2C1CCN(Cc2cccc(F)c2F)C1)c1ccco1` (stereo unspecified), the XC50 amounted to 787 nM. Next, `Clc1ccc2c(NN=Cc3ccco3)ccnc2c1`: 1100 nM; `COc1ccc(CN(C)CCCOc2ccc(NC(=O)c3cccc4c(=O)c5cccc(F)c5[nH]c34)cc2)cc1OC`: 637 nM; `CC(C)c1ccc(NC(=O)c2ccc(CN3CCCN(Cc4cccc(Cl)c4)CC3)cc2)cc1`: 1160 nM. With `CC[C@H](C)CNC(=O)c1cncc(-c2ccc(CNC3CCCC3)cc2)c1`, the XC50 is 1120 nM. Next, `CC[C@@]1(O)C(=O)OCc2c1cc1n(c2=O)Cc2c-1nc1cc3c(cc1c2CN1CCN(C)CC1)OCCO3`: 446 nM.

In the case of `CN(C)CCN1CCN(Cc2ccc(-c3cccc(-c4nc5ccccc5[nH]4)c3)cc2)CC1`, the XC50 is 199 nM. As for `Cc1ccc(C(=O)Nc2cc(C(F)(F)F)cc(C(F)(F)F)c2)cc1[N+](=O)[O-]`, the XC50 is 927 nM. Next, `O=[N+]([O-])c1cccc(S(=O)(=O)N2CCN(CC(O)COc3ccc(-c4ccccc4)cc3)CC2)c1` (stereo unspecified): 1360 nM; `Cc1ncc([N+](=O)[O-])n1CCOC(=O)NC(Nc1ccc(Br)cc1)C(Cl)(Cl)Cl` (stereo unspecified): 962 nM. Next, `CCn1c(-c2nonc2N)nc2c(-c3cccc(Cl)c3)ncc(OCCCNCc3cnc(C)nc3N)c21`: 1010 nM; `Cc1cc(N)c2cc(NC(=O)c3cc(C(F)(F)F)cc(C(F)(F)F)c3)ccc2n1`: 86.8 nM. Turning to `O=S(=O)(Nc1ccc(-c2ccc(CN3CCCC3)cc2)cc1)c1cccc2cccnc12`, the XC50 came out at 1020 nM.

With `CCCC(C)Nc1nc(C)cc(N[C@@H](CC(C)C)C(=O)NCCOc2ccccc2)n1` (stereo partly specified), the XC50 worked out at 1710 nM. Next, `O=S(=O)(NCCN1CCCC1)c1ccc(-c2cccc(CNC3Cc4ccccc4C3)c2)cc1F`: 1020 nM; `CC(C)CC(C)NC(=O)C1Cc2c([nH]c3ccc(F)cc23)C2(CCN(Cc3ccccc3)CC2)N1` (stereo unspecified): 970 nM.

Consider `Cc1ccc(-c2ccn(Cc3ccc(OCc4ccccc4)cc3)n2)cn1.Cc1ccc(-c2ccnn2Cc2ccc(OCc3ccccc3)cc2)cn1`, for which the XC50 was 674 nM. With `NCCc1cccc(-c2cnc3[nH]cc(-c4ccc(C(=O)O)cc4)c3c2)c1`, the XC50 was found to be 397 nM.

Consider `O=C(COC(=O)c1cccc(S(=O)(=O)N2CCc3ccccc32)c1)NNC(=O)c1cccs1`, for which the XC50 was 1250 nM. Next, `Cc1cc(N2CCC(C)CC2)nc2cc(O)ccc12`: 1180 nM; `CCCc1ccc(S(=O)(=O)NC2CCN(C(=O)Nc3ccc(I)cc3)CC2)cc1`: 872 nM.

For `O=C(NCc1cccc(F)c1)Nc1cccc(-c2cccc(-c3nc4cc(C(F)(F)F)ccc4[nH]3)c2)c1`, the XC50 stood at 330 nM. For `COc1ccc(NC(=O)CSc2nc(-c3ccccc3Cl)ns2)cc1`, the XC50 was 1040 nM. On to `NCc1cccc(-c2ccc3ccnc(N)c3c2)c1`, for which the XC50 amounted to 168 nM. Next, `O=C(Nc1cccc(F)c1)N(Cc1ccc(-c2cccc(CN3CCNCC3)c2)cc1)C1CCN(Cc2ccccc2)CC1`: 763 nM; `CCCCCC(C)NC[C@@H](O)[C@H](Cc1ccccc1)NC(=O)c1cc(NCC)cc(N2CCCCS2(=O)=O)c1` (stereo partly specified): 398 nM.

As to `COc1ccc(S(=O)(=O)NCC2CCCN(CCCCCNC(=O)/C=C/c3ccc(Cl)c(Cl)c3)C2)cc1` (stereo unspecified), the XC50 was determined as 1060 nM. The compound `O=C(c1ccc(Cl)cc1Cl)N1CCCC(C(F)(F)F)C1` (stereo unspecified) came in with an XC50 of 952 nM. Next, `COc1cc(Cc2cnc(N)nc2N)c2ccsc2c1OC`: 1070 nM; `COc1ccc(-c2cnc(N)c(-c3ccc(O)c(OC)c3)c2)cn1`: 875 nM. `CCCC(C)NC(=O)[C@H]1CNCCN1C(=O)CCCc1ccccc1` (stereo partly specified) came in with an XC50 of 186 nM. Next, `CCN(CCCN1CCCC1)c1cc(C)nc(Nc2ccc(Cl)cc2)n1`: 344 nM; `CCCc1c(C(=O)NC2CCC(CN3CCC(c4c[nH]c5ccccc45)CC3)CC2)cnn1-c1c(Cl)cc(Cl)cc1Cl` (stereo unspecified): 820 nM; `COc1ccc(-c2cnc3ccc(NCc4ccc(F)cc4)nn23)cc1OC`: 834 nM. `Cc1cc2ccc(-c3cccc(CN)c3)cc2nc1N` yielded an XC50 of 758 nM. For the compound `CCCN(CCC)CCCN(CCCN(CCC)CCC)c1cc(C)nc(Nc2ccc3cc(Br)ccc3c2)n1`, the XC50 came out at 210 nM. As to `Cc1cc(Cl)c(S(=O)(=O)N2CCc3ccccc32)cc1OCC(=O)NC1CCCCC1`, the XC50 came out at 302 nM. Next, `CO/C(=C\C=C\c1cc2cc(Cl)c(Cl)cc2[nH]1)C(=O)NCCCN1CCN(Cc2ccccc2)CC1`: 912 nM. `O=C1C2C(c3ccc(Cl)c(Cl)c3)N3CC(OCc4ccccc4)CC3(C(=O)O)C2C(=O)N1c1ccc(Br)cc1` (stereo unspecified) showed an XC50 of 336 nM. With `O=C(C=Cc1ccc(F)cc1)N1CCN(S(=O)(=O)c2ccc(Cl)cc2)CC1`, the XC50 turned out to be 634 nM. Next, `Cc1ccc(-c2nc3cc(C(=O)NC4CCN(Cc5ccccc5)CC4)ccc3[nH]2)cc1`: 744 nM.

As to `CCCn1c(Sc2ccc(C#N)c([N+](=O)[O-])c2)nnc1-c1ccc(Cl)cc1`, the XC50 was determined as 537 nM. In the case of `CCOc1ccc2[nH]c(C)cc(=NN=Cc3cccnc3)c2c1`, the XC50 turned out to be 155 nM. For the compound `COc1cc2nc(N3CCC(CNC(=O)/C=C/c4cccc(C)c4)CC3)nc(N)c2cc1OC`, the XC50 is 684 nM. Next, `Nc1ncnc2c1ncn2C(CO)Cc1ccc(O)cc1` (stereo unspecified): 1030 nM; `Cc1ccc(Cn2c(N3CCC(C(=O)NCc4ccccn4)CC3)nc3ccccc32)cc1`: 408 nM; `CCOc1cc(C(=O)NC2CCN(Cc3ccccc3)CC2)ccc1-c1nc2cc(Cl)ccc2[nH]1`: 430 nM. Next, `COc1ccc2[nH]ccc(=NN=Cc3ccccc3)c2c1`: 110 nM.

Turning to `CC1CCC(C[C@@H](C(=O)N[C@@H](CCC(=O)N2CCCCC2)C(=O)Nc2nccs2)[C@H](C(C)C)N(O)C=O)CC1` (stereo partly specified), the XC50 came out at 615 nM. Next, `Cn1cc(C2CCN(CCCCNC(=O)c3ccc(C(=O)Nc4ccc(C#N)cc4)cc3)CC2)c2ccccc21`: 724 nM; `O=C(/C=C/c1c[nH]c2ccccc12)NCCCCCN1CCC(c2c[nH]c3ccccc23)CC1`: 932 nM; `CCOCCCNc1ncc(-c2ccsc2)c(-c2nc(C)cs2)n1`: 272 nM.

Turning to `C[C@@H](Oc1cc(-n2cnc3cc(SCCN4CCN(C)CC4)ccc32)sc1C(N)=O)c1ccccc1Cl`, the XC50 was found to be 507 nM. Next, `O=C(N[C@@H](Cc1cc(F)cc(F)c1)[C@H](O)CNCc1cccc(C(F)(F)F)c1)c1cc(C2CCCC2)cc(N2CCCC2=O)c1`: 803 nM; `O=S(=O)(NCCN1CCCC1)c1ccc(-c2cccc(CNCc3ccc(F)cc3)c2)cc1`: 729 nM. As to `Cc1cc(NC(=O)NCCN2CCC(NS(=O)(=O)c3ccccc3Cl)C2)c2ccccc2n1` (stereo unspecified), the XC50 worked out at 815 nM. Next, `CCC1(C)CC(CCNCc2ccccc2O)(c2ccccc2OC)CCO1` (stereo unspecified): 721 nM; `c1ccc(-c2ccc(-c3csc(Nc4ccncc4)n3)cc2)cc1`: 1010 nM; `O=C(Nc1ccc(N2CCCCC2)c(Cl)c1)c1ccc(Br)o1`: 549 nM.

Compound `Cc1cc2c(cc1C(F)(F)F)N(C(=O)Nc1cc(OCCN(C(C)C)C(C)C)cc(C(F)(F)F)c1)CC2` returned an XC50 of 259 nM.

As to `CCCNC(=O)c1cncc(-c2cccc(CNC3Cc4ccccc4C3)c2)c1`, the XC50 came out at 803 nM.

In turn, `CCc1c(C)nc(-n2nc(C)cc2NC(=O)C(CC)c2ccccc2)[nH]c1=O` (stereo unspecified) registered an XC50 of 714 nM. As to `c1cc(CNCCc2ccncc2)cc(-c2ccc(-c3nc4ccccc4[nH]3)cc2)c1`, the XC50 amounted to 146 nM.
